# From ChEMBL document CHEMBL1201862, “PubChem BioAssay data set” (2004)
#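 Tested at 5 concentrations; 48 h exposure; 96-well plates; endpoints linearly interpolated, else capped at highest concentration. GI50 = concentration required for 50% inhibition of growth.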 Calls of active or inactive are those of the source. No stated cut-off is given here; in the data, active = GI50 up to about 1.1 µM and inactive = higher.
# Legend:
# Assay in all cases: NCI anticancer screen, dose series, 48 h
# A549 = system: A549
# ACHN = system: ACHN
# BT-549 = system: BT-549
# CCRF-CEM = system: CCRF-CEM
# COLO 205 = system: COLO 205
# HT-29 = system: HT-29
# IGROV-1 = system: IGROV-1
# MDA-MB-231 = system: MDA-MB-231
# MDA-N = system: MDA-N
# OVCAR-8 = system: OVCAR-8
# PC-3 = system: PC-3
# SK-MEL-28 = system: SK-MEL-28
# SNB-19 = system: SNB-19
# SNB-75 = system: SNB-75
# SR = system: SR
# TK-10 = system: TK-10
# HCT-116 = system: HCT-116
# K562 = system: K562
# OVCAR-4 = system: OVCAR-4
SMILES,GI50 (A549),GI50 (ACHN),GI50 (BT-549),GI50 (CCRF-CEM),GI50 (COLO 205),GI50 (HT-29),GI50 (IGROV-1),GI50 (MDA-MB-231),GI50 (MDA-N),GI50 (OVCAR-8),GI50 (PC-3),GI50 (SK-MEL-28),GI50 (SNB-19),GI50 (SNB-75),GI50 (SR),GI50 (TK-10),GI50 (HCT-116),GI50 (K562),GI50 (OVCAR-4)
COC(=O)C12OCC34C(CC5C(C)=CC(=O)C(O)C5(C)C3C(O)C1O)OC(=O)C(OC(=O)CC(C)C)C24 (stereo unspecified),0.0013 µM (active),< 0.0371 µM (active),0.000463 µM (active),0.000486 µM (active),0.00237 µM (active),0.000973 µM (active),0.000564 µM (active),0.00369 µM (active),0.00142 µM (active),0.00206 µM (active),0.000871 µM (active),0.00134 µM (active),0.0014 µM (active),0.00216 µM (active),0.000327 µM (active),0.0444 µM (active),–,–,–
CC#CC#C/C=C1/O[C@]2(CCC(OC(C)=O)CO2)[C@@H]2O[C@H]12 (stereo partly specified),29.6 µM (inactive),24.9 µM (inactive),21.1 µM (inactive),14.7 µM (inactive),15.1 µM (inactive),28.9 µM (inactive),50.7 µM (inactive),23 µM (inactive),28.2 µM (inactive),32.8 µM (inactive),22.1 µM (inactive),–,27.7 µM (inactive),80.5 µM (inactive),25.9 µM (inactive),39.5 µM (inactive),17.8 µM (inactive),29.4 µM (inactive),27.9 µM (inactive)
CC1=Nc2ccccc2OC(C)=C1/N=N/c1ccc2[nH]c(C)nc2c1,> 100 µM (inactive),43.8 µM (inactive),> 100 µM (inactive),> 100 µM (inactive),> 100 µM (inactive),> 100 µM (inactive),33.5 µM (inactive),> 100 µM (inactive),> 100 µM (inactive),> 100 µM (inactive),> 100 µM (inactive),> 100 µM (inactive),> 100 µM (inactive),25.1 µM (inactive),> 100 µM (inactive),> 100 µM (inactive),> 100 µM (inactive),> 100 µM (inactive),> 100 µM (inactive)
CC1=C(O)C(O)=C(C2=C(O)C(O)=C(C)C(=O)C2=O)C(=O)C1=O,–,28.1 µM (inactive),31 µM (inactive),60 µM (inactive),40.7 µM (inactive),59.3 µM (inactive),43.4 µM (inactive),31.8 µM (inactive),40.9 µM (inactive),47.4 µM (inactive),60.8 µM (inactive),29.2 µM (inactive),50.5 µM (inactive),76.2 µM (inactive),> 100 µM (inactive),–,46.7 µM (inactive),45.7 µM (inactive),24.6 µM (inactive)
COc1ccc2c(c1OC)CN1CCc3cc4c(cc3C1C2)OCO4 (stereo unspecified) [TETRAHYDROBERBERINE],> 100 µM (inactive),> 100 µM (inactive),> 100 µM (inactive),–,> 100 µM (inactive),–,> 100 µM (inactive),> 100 µM (inactive),> 100 µM (inactive),> 100 µM (inactive),> 100 µM (inactive),> 100 µM (inactive),> 100 µM (inactive),> 100 µM (inactive),> 100 µM (inactive),> 100 µM (inactive),> 100 µM (inactive),80 µM (inactive),> 100 µM (inactive)
COC(NC(=O)Nc1ccc(C)cc1)(C(F)(F)F)C(F)(F)F,34.8 µM (inactive),24 µM (inactive),22.9 µM (inactive),2.67 µM (inactive),18.7 µM (inactive),31 µM (inactive),26.5 µM (inactive),32.2 µM (inactive),26.4 µM (inactive),25.2 µM (inactive),13.9 µM (inactive),42.2 µM (inactive),23.7 µM (inactive),28.1 µM (inactive),30.9 µM (inactive),42.8 µM (inactive),29.3 µM (inactive),8.39 µM (inactive),34.2 µM (inactive)
CC(C)(C)N1Cc2ccccc2/C(=C/Sc2ccccc2)C1=O,16.2 µM (inactive),17.9 µM (inactive),6.53 µM (inactive),5.25 µM (inactive),18.1 µM (inactive),17 µM (inactive),10.1 µM (inactive),16.5 µM (inactive),6.55 µM (inactive),8.11 µM (inactive),12.6 µM (inactive),17.5 µM (inactive),16 µM (inactive),16 µM (inactive),2.64 µM (inactive),19 µM (inactive),7.03 µM (inactive),5.85 µM (inactive),7.01 µM (inactive)
CC(C)CC(NC(O)[BH2-][N+](C)(C)C)C(=O)NC(Cc1ccccc1)C(=O)N[C@H]1c2ccsc2/C(=N/O)[C@H]1O (stereo partly specified),> 100 µM (inactive),> 100 µM (inactive),> 100 µM (inactive),> 100 µM (inactive),> 100 µM (inactive),> 100 µM (inactive),> 100 µM (inactive),> 100 µM (inactive),> 100 µM (inactive),> 100 µM (inactive),> 100 µM (inactive),> 100 µM (inactive),> 100 µM (inactive),> 100 µM (inactive),> 100 µM (inactive),> 100 µM (inactive),> 100 µM (inactive),> 100 µM (inactive),> 100 µM (inactive)
CC(C)(C)OC(=O)NCCCNC1(c2cc3ccccc3s2)CCCCC1,12.6 µM (inactive),19.2 µM (inactive),13.6 µM (inactive),8.22 µM (inactive),12.3 µM (inactive),3.15 µM (inactive),16.7 µM (inactive),17.6 µM (inactive),15.1 µM (inactive),17.2 µM (inactive),18.8 µM (inactive),14.9 µM (inactive),13.6 µM (inactive),15.6 µM (inactive),10.2 µM (inactive),16.6 µM (inactive),12 µM (inactive),10.5 µM (inactive),15.2 µM (inactive)
CCCCOc1ccc(S(=O)(=O)N/C(N)=N/c2ccc(Cl)cc2)cc1,19.5 µM (inactive),14.6 µM (inactive),17.8 µM (inactive),–,25.2 µM (inactive),18.3 µM (inactive),14.7 µM (inactive),15.6 µM (inactive),16.2 µM (inactive),16.1 µM (inactive),17.3 µM (inactive),16.7 µM (inactive),16.9 µM (inactive),17.9 µM (inactive),3.27 µM (inactive),14.9 µM (inactive),15.2 µM (inactive),15 µM (inactive),10.2 µM (inactive)
O=C(CC(=O)N(C(=O)/C=C\c1ccccc1)c1ccc(Cl)cc1)N1N=C(c2ccccc2)C(/N=N/c2cccc([N+](=O)[O-])c2)C1=O (stereo unspecified),5.05 µM (inactive),5.13 µM (inactive),12.3 µM (inactive),1.36 µM (inactive),3.45 µM (inactive),2.42 µM (inactive),9.06 µM (inactive),0.971 µM (active),7.05 µM (inactive),3.78 µM (inactive),3.23 µM (inactive),11.5 µM (inactive),13.9 µM (inactive),11.9 µM (inactive),1.57 µM (inactive),7.89 µM (inactive),3.37 µM (inactive),4.65 µM (inactive),–
N=C(CSS(=O)(=O)O)NC1CC2CCC1C2 (stereo unspecified),> 100 µM (inactive),> 100 µM (inactive),> 100 µM (inactive),> 100 µM (inactive),> 100 µM (inactive),–,> 100 µM (inactive),> 100 µM (inactive),> 100 µM (inactive),> 100 µM (inactive),> 100 µM (inactive),> 100 µM (inactive),> 100 µM (inactive),> 100 µM (inactive),> 100 µM (inactive),> 100 µM (inactive),> 100 µM (inactive),98.6 µM (inactive),> 100 µM (inactive)
C/C(=N\Nc1nc2ccccc2o1)c1cc(C)ncn1,0.0957 µM (active),< 0.0189 µM (active),0.305 µM (active),< 0.01 µM (active),< 0.01 µM (active),< 0.01 µM (active),0.0275 µM (active),< 0.0203 µM (active),2.42 µM (inactive),0.0173 µM (active),0.0383 µM (active),4 µM (inactive),0.405 µM (active),0.151 µM (active),0.124 µM (active),–,< 0.0191 µM (active),0.0356 µM (active),0.136 µM (active)
Cc1ccc(C(=O)OC(C)C)cc1/N=N/N(C)C,> 100 µM (inactive),> 88.5 µM (inactive),> 100 µM (inactive),75.2 µM (inactive),> 100 µM (inactive),> 100 µM (inactive),> 100 µM (inactive),> 100 µM (inactive),> 100 µM (inactive),> 100 µM (inactive),99.1 µM (inactive),> 100 µM (inactive),> 69.8 µM (inactive),–,> 100 µM (inactive),> 100 µM (inactive),> 67.9 µM (inactive),> 100 µM (inactive),> 75.2 µM (inactive)
COc1cccc(-c2nnc3c(-c4ccccc4)nc4ccccc4n23)c1,21.2 µM (inactive),> 62.2 µM (inactive),35.9 µM (inactive),11.2 µM (inactive),8.57 µM (inactive),19.2 µM (inactive),21.6 µM (inactive),24.5 µM (inactive),3.5 µM (inactive),45.2 µM (inactive),16.4 µM (inactive),> 77.4 µM (inactive),> 100 µM (inactive),–,3.9 µM (inactive),36.3 µM (inactive),19.7 µM (inactive),4.11 µM (inactive),9.86 µM (inactive)
